What is called IC50 is the concentration that inhibits the measured activity by half.

32 compounds from ChEMBL document CHEMBL4732071, “Discovery of selective HDAC/BRD4 dual inhibitors as epigenetic probes” (Eur J Med Chem, 2021) can be followed below.

For experiment [1], the target named is T1, Protein deacetylase HDAC6 (Homo sapiens, UniProt Q9UBN7).
T1 sequence (Q9UBN7 whole entry): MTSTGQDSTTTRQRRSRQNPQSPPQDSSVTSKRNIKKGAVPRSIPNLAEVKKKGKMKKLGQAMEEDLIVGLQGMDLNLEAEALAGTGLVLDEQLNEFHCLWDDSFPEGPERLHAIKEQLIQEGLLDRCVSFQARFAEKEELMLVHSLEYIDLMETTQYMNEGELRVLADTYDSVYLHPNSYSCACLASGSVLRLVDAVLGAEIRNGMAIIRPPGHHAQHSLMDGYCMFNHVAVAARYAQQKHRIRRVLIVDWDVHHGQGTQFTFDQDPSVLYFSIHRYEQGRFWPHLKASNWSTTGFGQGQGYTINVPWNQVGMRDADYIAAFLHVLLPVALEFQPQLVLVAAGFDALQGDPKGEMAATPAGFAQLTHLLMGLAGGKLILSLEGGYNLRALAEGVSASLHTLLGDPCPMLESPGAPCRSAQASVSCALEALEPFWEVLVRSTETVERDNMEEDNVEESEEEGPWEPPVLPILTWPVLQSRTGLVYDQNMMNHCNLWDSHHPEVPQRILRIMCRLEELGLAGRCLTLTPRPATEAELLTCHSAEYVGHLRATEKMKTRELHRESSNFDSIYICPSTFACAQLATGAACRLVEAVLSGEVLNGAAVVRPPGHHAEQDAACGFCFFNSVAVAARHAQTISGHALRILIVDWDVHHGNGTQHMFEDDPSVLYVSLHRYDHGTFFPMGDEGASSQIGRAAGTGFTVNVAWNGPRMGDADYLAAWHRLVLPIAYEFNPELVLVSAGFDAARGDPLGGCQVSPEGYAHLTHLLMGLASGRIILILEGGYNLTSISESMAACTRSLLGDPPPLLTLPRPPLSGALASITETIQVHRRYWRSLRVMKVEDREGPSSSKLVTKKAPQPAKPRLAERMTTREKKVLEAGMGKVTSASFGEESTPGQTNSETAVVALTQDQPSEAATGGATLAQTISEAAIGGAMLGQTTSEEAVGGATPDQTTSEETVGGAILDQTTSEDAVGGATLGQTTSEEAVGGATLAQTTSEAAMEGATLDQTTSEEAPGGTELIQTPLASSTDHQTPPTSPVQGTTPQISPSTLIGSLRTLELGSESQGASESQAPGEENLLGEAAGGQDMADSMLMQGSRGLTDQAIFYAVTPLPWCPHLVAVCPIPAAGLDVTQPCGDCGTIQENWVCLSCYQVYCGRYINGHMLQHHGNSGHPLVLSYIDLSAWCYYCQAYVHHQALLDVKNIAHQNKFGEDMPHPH
As to the kind of experiment: Inhibition of HDAC6 (unknown origin) by fluorescence based assay.

A further experiment has as its system MV4-11. Nature of the experiment: Antiproliferative activity against human MV4-11 cells assessed as cell viability after 72 hrs by CCK8 assay. The experiment is classed as functional, cell-based. The settings on record: MV4-11, 72 h. In general terms: Tetrazolium assays rely on reduction of a dye to a coloured formazan, in cell work by metabolically active cells.

The target in another experiment is Histone deacetylase 1 (Homo sapiens, UniProt Q13547). As to the kind of experiment: Inhibition of HDAC1 (unknown origin) by fluorescence based assay.
The target in experiment [2] is T2, Bromodomain-containing protein 4 (Homo sapiens, UniProt O60885). Nature of the experiment: Inhibition of His-tagged BRD4 bromodomain 2 (unknown origin) using [Lys (5,8,12,16) Ac] H4(1-21) as substrate by fluorescence based assay.
Experiment [3] has as its target T2, Bromodomain-containing protein 4. As to the kind of experiment: Inhibition of His-tagged BRD4 bromodomain 1 (unknown origin) using [Lys (5,8,12,16) Ac] H4(1-21) as substrate by fluorescence based assay.

Sequence of Histone deacetylase 1 (Q13547 whole entry): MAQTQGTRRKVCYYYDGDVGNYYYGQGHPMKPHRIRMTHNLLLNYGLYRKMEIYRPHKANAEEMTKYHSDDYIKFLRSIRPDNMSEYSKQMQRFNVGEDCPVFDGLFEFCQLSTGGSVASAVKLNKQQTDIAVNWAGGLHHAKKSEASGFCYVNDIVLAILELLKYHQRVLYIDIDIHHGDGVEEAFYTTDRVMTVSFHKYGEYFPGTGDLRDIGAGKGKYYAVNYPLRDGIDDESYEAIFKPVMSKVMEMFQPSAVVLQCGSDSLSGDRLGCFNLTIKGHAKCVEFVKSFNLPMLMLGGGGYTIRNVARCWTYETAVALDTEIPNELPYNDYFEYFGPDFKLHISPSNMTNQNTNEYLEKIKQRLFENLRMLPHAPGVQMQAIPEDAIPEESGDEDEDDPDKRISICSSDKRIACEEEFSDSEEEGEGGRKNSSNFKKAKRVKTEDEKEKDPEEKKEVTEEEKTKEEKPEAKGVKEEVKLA

For `Cc1sc2c(c1C)C(c1ccc(Cl)cc1)=N[C@@H](CC(=O)Nc1ccc(O)cc1)c1nnc(C)n1-2` [BIRABRESIB], the IC50 in experiment [1] is above 10 µM; in the experiment on MV4-11 it was 0.2 µM; against Histone deacetylase 1, above 10 µM.
Regarding `COc1ccc(-c2cn(C)c(=O)c3[nH]c(C(=O)NCc4ccc(C(=O)Nc5ccccc5N)cc4)cc23)cc1`, the IC50 in experiment [2] turned out to be 0.0612 µM; with MV4-11 it was 0.32 µM; in experiment [3] it was 0.0405 µM; at Histone deacetylase 1 it was 0.0468 µM.
The matching figures for `COc1ccccc1-c1cn(C)c(=O)c2[nH]c(C(=O)NCc3ccc(C(=O)Nc4ccccc4N)cc3)cc12`: 0.0476 µM, 0.2 µM, 0.0226 µM and 0.0576 µM.
As for `Cn1cc(-c2cc(C(C)(C)O)ccc2OC2CC2)c2cc(C(=O)NCCCCCCC(=O)NO)[nH]c2c1=O`, the concentration for half-maximal inhibition (IC50) came to 0.0055 µM in experiment [1]; 0.0058 µM in experiment [2]; 0.22 µM in the experiment with MV4-11; 0.0262 µM in experiment [3]; 0.0298 µM on Histone deacetylase 1.
With `Cn1cc(-c2cc(C(C)(C)O)ccc2Oc2ccc(F)cc2F)c2cc(C(=O)NCc3ccc(C(=O)NO)cc3)[nH]c2c1=O`, the half-inhibitory concentration (IC50) came to 0.0156 µM in experiment [1]; 0.0124 µM in experiment [2]; 0.19 µM with MV4-11; 0.0767 µM in experiment [3]; 0.074 µM against Histone deacetylase 1.
With `Cc1ccccc1-c1cn(C)c(=O)c2[nH]c(C(=O)NCc3ccc(C(=O)Nc4ccccc4N)cc3)cc12`, the IC50 in experiment [2] amounted to 0.149 µM; with MV4-11 it was 0.31 µM; in experiment [3], 0.117 µM; on Histone deacetylase 1 it was 0.0639 µM.
Take `Cn1cc(-c2cc(C(C)(C)O)ccc2OC2CC2)c2cc(C(=O)NCc3ccc(C(=O)NO)cc3)[nH]c2c1=O`: the IC50 came to 0.0079 µM in experiment [1]; 0.0069 µM in experiment [2]; 0.42 µM in the experiment with MV4-11; 0.252 µM in experiment [3]; 0.0208 µM against Histone deacetylase 1.
As to `CC(C)Oc1ccccc1-c1cn(C)c(=O)c2[nH]c(C(=O)NCc3ccc(C(=O)Nc4ccccc4N)cc3)cc12`, the half-maximal inhibitory concentration (IC50) in experiment [2] was 0.0153 µM; in the experiment on MV4-11 it was 0.13 µM; in experiment [3], 0.0228 µM; against Histone deacetylase 1, 0.116 µM.
On to `Cn1cc(-c2ccc(C(F)(F)F)cc2)c2cc(C(=O)NCc3ccc(C(=O)Nc4ccccc4N)cc3)[nH]c2c1=O`, for which the IC50 in experiment [2] is 0.364 µM; in experiment [3], 0.146 µM; against Histone deacetylase 1, 0.24 µM.
As for `Cc1cccc(-c2cn(C)c(=O)c3[nH]c(C(=O)NCc4ccc(C(=O)Nc5ccccc5N)cc4)cc23)c1`, the IC50 in experiment [2] was found to be 0.105 µM; in experiment [3], 0.0528 µM; against Histone deacetylase 1 it was 0.0549 µM.
`Cn1cc(-c2ccccc2)c2cc(C(=O)NCc3ccc(C(=O)Nc4ccccc4N)cc3)[nH]c2c1=O`: the IC50 stood at 0.0758 µM in experiment [2], 0.23 µM with MV4-11, 0.0478 µM in experiment [3] and 0.052 µM against Histone deacetylase 1.
On to `CC(C)Oc1ccc(C(C)(C)O)cc1-c1cn(C)c(=O)c2[nH]c(C(=O)NCc3ccc(C(=O)NO)cc3)cc12`, for which the IC50 in experiment [1] is 0.052 µM; in experiment [2], 0.01 µM; with MV4-11, 0.35 µM; in experiment [3], 0.0313 µM; against Histone deacetylase 1, 0.036 µM.
`Cn1cc(-c2ccc(F)cc2)c2cc(C(=O)NCc3ccc(C(=O)Nc4ccccc4N)cc3)[nH]c2c1=O`: the IC50 was 0.0799 µM in experiment [2], 0.22 µM with MV4-11, 0.0441 µM in experiment [3] and 0.0473 µM on Histone deacetylase 1.
The like results for `Cn1cc(-c2cc(C(C)(C)O)ccc2Oc2ccccc2)c2cc(C(=O)NCc3ccc(C(=O)Nc4ccccc4N)cc3)[nH]c2c1=O` were, in that order, 0.003 µM, 0.1 µM, 0.0134 µM and 0.229 µM.
The matching figures for `Cn1cc(-c2cccc(F)c2)c2cc(C(=O)NCc3ccc(C(=O)Nc4ccccc4N)cc3)[nH]c2c1=O`: 0.0759 µM, 0.21 µM, 0.0509 µM and 0.0531 µM.
In the case of `O=C(CCCCCCC(=O)Nc1ccccc1)NO` [VORINOSTAT], the IC50 in experiment [2] and in experiment [3] was above 10 µM in each case.
Consider `Cc1cc(F)cc(C)c1Oc1ccc(C(C)(C)O)cc1-c1cn(C)c(=O)c2[nH]c(C(=O)NCc3ccc(C(=O)Nc4ccccc4N)cc3)cc12`, for which the IC50 in experiment [2] was 0.0366 µM; in the experiment on MV4-11, 0.24 µM; in experiment [3] it was 0.229 µM; on Histone deacetylase 1 it was above 0.5 µM.
Consider `Cn1cc(-c2cccc(C(C)(C)O)c2)c2cc(C(=O)NCc3ccc(C(=O)Nc4ccccc4N)cc3)[nH]c2c1=O`, for which the IC50 in experiment [2] turned out to be 0.03 µM; with MV4-11, 2.2 µM; in experiment [3], 0.02 µM; against Histone deacetylase 1, 0.0281 µM.
On to `Nc1ccccc1NC(=O)c1ccc(CNC(=O)OCc2cccnc2)cc1` [ENTINOSTAT], for which the IC50 in experiment [2] is above 10 µM; in the experiment on MV4-11, 0.24 µM; in experiment [3] it was above 10 µM.
Take `Cn1cc(-c2ccccc2Oc2ccccc2)c2cc(C(=O)NCCCCCCC(=O)Nc3ccccc3N)[nH]c2c1=O`: the concentration for half-maximal inhibition (IC50) in experiment [1] was above 0.5 µM; in experiment [2], 0.0154 µM; in the experiment on MV4-11 it was 0.13 µM; in experiment [3], 0.14 µM; on Histone deacetylase 1, above 0.5 µM.
`COc1ccc(C(C)(C)O)cc1-c1cn(C)c(=O)c2[nH]c(C(=O)NCc3ccc(C(=O)Nc4ccccc4N)cc3)cc12`: the IC50 is 0.007 µM in experiment [2], 0.42 µM with MV4-11, 0.0039 µM in experiment [3] and 0.333 µM on Histone deacetylase 1.
As for `Cn1cc(-c2ccc(Cl)cc2)c2cc(C(=O)NCc3ccc(C(=O)Nc4ccccc4N)cc3)[nH]c2c1=O`, the IC50 in experiment [2] was 0.278 µM; in experiment [3], 0.0624 µM; at Histone deacetylase 1, 0.0593 µM.
Consider `CCNC(=O)c1cc2c(-c3cc(C(C)(C)O)ccc3Oc3c(C)cc(F)cc3C)cn(C)c(=O)c2[nH]1` [ABBV-744], for which the IC50 was above 10 µM in experiment [1], 0.25 µM with MV4-11 and above 10 µM against Histone deacetylase 1.
For `COc1cccc(-c2cn(C)c(=O)c3[nH]c(C(=O)NCc4ccc(C(=O)Nc5ccccc5N)cc4)cc23)c1`, the IC50 in experiment [2] is 0.116 µM; in the experiment with MV4-11 it was 0.25 µM; in experiment [3], 0.0301 µM; at Histone deacetylase 1, 0.0545 µM.
In the case of `Cn1cc(-c2ccccc2Cl)c2cc(C(=O)NCc3ccc(C(=O)Nc4ccccc4N)cc3)[nH]c2c1=O`, the figures for the half-maximal inhibitory concentration (IC50) (in experiment [2]; in experiment [3]; against Histone deacetylase 1) were 0.206 µM, 0.102 µM and 0.0488 µM, respectively.
For the compound `Cn1cc(-c2cc(C(C)(C)O)ccc2Oc2ccc(F)cc2F)c2cc(C(=O)NCc3ccc(C(=O)Nc4ccccc4N)cc3)[nH]c2c1=O`, the IC50 in experiment [2] turned out to be 0.0015 µM; with MV4-11, 0.09 µM; in experiment [3], 0.0181 µM; on Histone deacetylase 1, 0.164 µM.
With `Cn1cc(-c2ccccc2C(F)(F)F)c2cc(C(=O)NCc3ccc(C(=O)Nc4ccccc4N)cc3)[nH]c2c1=O`, the results for the IC50 (in experiment [2]; in experiment [3]; at Histone deacetylase 1) were 0.571 µM, 0.371 µM and 0.21 µM, respectively.
Take `Cc1ccc(-c2cn(C)c(=O)c3[nH]c(C(=O)NCc4ccc(C(=O)Nc5ccccc5N)cc4)cc23)cc1`: the figures for the IC50 (in experiment [2]; in experiment [3]; on Histone deacetylase 1) were 0.122 µM, 0.061 µM and 0.094 µM, respectively.
For `Cn1cc(-c2cccc(Cl)c2)c2cc(C(=O)NCc3ccc(C(=O)Nc4ccccc4N)cc3)[nH]c2c1=O`, the half-maximal inhibitory concentration (IC50) is 0.158 µM in experiment [2], 0.19 µM in the experiment with MV4-11, 0.0655 µM in experiment [3] and 0.134 µM against Histone deacetylase 1.
The like results for `Cn1cc(-c2cc(C(C)(C)O)ccc2OC2CC2)c2cc(C(=O)NCc3ccc(C(=O)Nc4ccccc4N)cc3)[nH]c2c1=O` were, in that order, 0.0021 µM, 0.04 µM, 0.0077 µM and 0.0688 µM.
With `Cn1cc(-c2ccccc2F)c2cc(C(=O)NCc3ccc(C(=O)Nc4ccccc4N)cc3)[nH]c2c1=O`, the IC50 in experiment [2] came out at 0.0553 µM; in the experiment with MV4-11, 0.23 µM; in experiment [3], 0.0859 µM; against Histone deacetylase 1, 0.0208 µM.
For the compound `Cn1cc(-c2cccc(C(F)(F)F)c2)c2cc(C(=O)NCc3ccc(C(=O)Nc4ccccc4N)cc3)[nH]c2c1=O`, the IC50 is 0.313 µM in experiment [2], 0.823 µM in experiment [3] and above 0.5 µM at Histone deacetylase 1.
